In patent publication US20130078287A1 (Horizon Pharma USA, Inc., priority 2010, published 2013):
Marks after values point to notes of the source that are not given here.

Assays:
[1] = test system: subjects who completed REDUCE-1 or REDUCE-2 without ulcer; assay: Follow-on safety study (28 weeks) after REDUCE-1 or REDUCE-2: adverse events
[2] = test system: subjects who completed REDUCE-1 or REDUCE-2 without ulcer; settings: human, in vivo, 28 weeks
[3] = test system: subjects expected to require daily NSAID therapy; assay: REDUCE-2 study: endoscopically diagnosed UGI, gastric and duodenal ulcers; format: in vivo, human
Protocol: Subjects were deemed a treatment failure and terminated early from the study in the event they developed an endoscopically diagnosed UGI ulcer. Subjects who terminated early for reasons other than development of an endoscopically diagnosed UGI ulcer were to undergo an endoscopic examination at a termination visit that was conducted as soon as possible after administration of their final dose of study drug. The predefined population for primary analyses of ulcers was all subjects with ≧1 follow-up study endoscopy.

[4] = TEAE, follow-on study, Preferred Term
[5] = TEAE, follow-on study, System Organ Class
[6] = REDUCE-2, 24 weeks, crude proportion
[7] = REDUCE-2, 24 weeks, crude proportion, listed as ibuprofen
[8] = REDUCE-2, 24 weeks, life table estimate
[9] = REDUCE-2, 24 weeks, life table estimate, listed as ibuprofen
[10] = REDUCE-2, early terminations imputed as having an ulcer

SMILES: CC(C)Cc1ccc(C(C)C(=O)O)cc1 (stereo not drawn) [Ibuprofen, 2-(p-isobutylphenyl)propionic acid]
- AEs Leading to Discontinuation, Incidence (%) ([1]; Follow-on Study): 2.1%
- AEs by Relatedness: Possibly Related, Incidence (%) ([1]; Follow-on Study): 8.5%
- AEs by Relatedness: Probably Not Related, Incidence (%) ([1]; Follow-on Study): 25.5%
- AEs by Severity: Life Threatening, Incidence (%) ([1]; Follow-on Study): 0.0%
- AEs by Severity: Mild, Incidence (%) ([1]; Follow-on Study): 10.6%
- AEs by Severity: Moderate, Incidence (%) ([1]; Follow-on Study): 19.1%
- AEs by Severity: Severe, Incidence (%) ([1]; Follow-on Study): 4.3%
- Abdominal Pain Upper, Incidence (%) ([1]; Follow-on Study): 0.0 (0) %
- Abdominal Tenderness, Incidence % ([1]; Follow-on Study): 2.1 (0) %
- Any GI Event, Incidence (%) ([1]; Follow-on Study): 4.3 (2)* %
- Constipation, Incidence (%) ([1]; Follow-on Study): 0.0 (0) %
- Deaths, Incidence % ([1]; Follow-on Study): 0.0(0) %
- Diarrhea, Incidence (%) ([1]; Follow-on Study): 2.1 (1) %
- Dyspepsia, Incidence (%) ([1]; Follow-on Study): 0.0 (0) %
- General Disorders/Administrative Site Conditions, Incidence (%) ([1]; Follow-on Study): 4.3(2) %
- Hepatobiliary Disorders, Incidence (%) ([1]; Follow-on Study): 2.1(1) %
- Hypertension, Incidence (%) ([1]; Follow-on Study): 0.0(0) %
- Infections/Infestations, Incidence (%) ([1]; Follow-on Study): 14.9(7) %
- Injury, Poisoning, Procedural Complications, Incidence (%) ([1]; Follow-on Study): 4.3(2) %
- Metabolism and Nutrition Disorders, Incidence % ([1]; Follow-on Study): 8.5(4)* %
- Musculoskeletal/connective Tissue Disorders, Incidence (%) ([1]; Follow-on Study): 2.1(1) %
- Nausea, Incidence (%) ([1]; Follow-on Study): 0.0 (0) %
- Nervous System Disorders, Incidence (%) ([1]; Follow-on Study): 4.3(2) %
- Respiratory, Thoracic and Mediastinal Disorders, Incidence (%) ([1]; Follow-on Study): 2.1(1) %
- SAEs leading to discontinuation, Incidence % ([1]; Follow-on Study): 0.0(0) %
- Subjects with at least one AE, Incidence (%) ([1]; Follow-on Study): 34.0%
- Total SAEs, Incidence % ([1]; Follow-on Study): 4.3(2) %
- Withdrawals due to GI, Incidence (%) ([1]; Follow-on Study): 0.0 (0) %
- Abdominal discomfort [1, 4]: 2.1 (1) % (n)
- Abdominal distension [1, 4]: 0.0 (0) % (n)
- Abdominal pain [1, 4]: 2.1 (1) % (n)
- Abdominal pain upper [1, 4]: 2.1 (1) % (n)
- Abdominal tenderness [1, 4]: 2.1 (1) % (n)
- Accidental overdose [1, 4]: 2.1 (1) % (n)
- Anaemia [1, 4]: 2.1 (1) % (n)
- Animal bite [1, 4]: 0.0 (0) % (n)
- Anxiety [1, 4]: 2.1 (1) % (n)
- Arthralgia [1, 4]: 4.3 (2) % (n)
- Asthma [1, 4]: 0.0 (0) % (n)
- Back pain [1, 4]: 0.0 (0) % (n)
- Blood creatinine increased [1, 4]: 0.0 (0) % (n)
- Blood pressure increased [1, 4]: 0.0 (0) % (n)
- Bronchitis [1, 4]: 2.1 (1) % (n)
- Bronchitis acute [1, 4]: 2.1 (1) % (n)
- Carpal tunnel syndrome [1, 4]: 0.0 (0) % (n)
- Cataract [1, 4]: 2.1 (1) % (n)
- Cholelithiasis [1, 4]: 2.1 (1) % (n)
- Conjunctivitis [1, 4]: 2.1 (1) % (n)
- Constipation [1, 4]: 4.3 (2) % (n)
- Contusion [1, 4]: 2.1 (1) % (n)
- Cough [1, 4]: 0.0 (0) % (n)
- Dermatitis [1, 4]: 2.1 (1) % (n)
- Dermatitis contact [1, 4]: 2.1 (1) % (n)
- Diabetes mellitus [1, 4]: 2.1 (1) % (n)
- Diabetes mellitus non-insulin-dependent [1, 4]: 2.1 (1) % (n)
- Diarrhoea [1, 4]: 8.5 (4) % (n)
- Dizziness [1, 4]: 2.1 (1) % (n)
- Dyspepsia [1, 4]: 2.1 (1) % (n)
- Ear infection [1, 4]: 2.1 (1) % (n)
- Eczema [1, 4]: 2.1 (1) % (n)
- Fall [1, 4]: 2.1 (1) % (n)
- Flatulence [1, 4]: 2.1 (1) % (n)
- Folliculitis [1, 4]: 2.1 (1) % (n)
- Foot fracture [1, 4]: 2.1 (1) % (n)
- Gait disturbance [1, 4]: 2.1 (1) % (n)
- Gastritis [1, 4]: 2.1 (1) % (n)
- Gastroenteritis [1, 4]: 0.0 (0) % (n)
- Gastroenteritis viral [1, 4]: 4.3 (2) % (n)
- Gastrooesophageal reflux disease [1, 4]: 2.1 (1) % (n)
- Headache [1, 4]: 0.0 (0) % (n)
- Hypercholesterolaemia [1, 4]: 2.1 (1) % (n)
- Hyperglycaemia [1, 4]: 2.1 (1) % (n)
- Hyperlipidaemia [1, 4]: 2.1 (1) % (n)
- Hyperosmolar state [1, 4]: 2.1 (1) % (n)
- Hypertension [1, 4]: 2.1 (1) % (n)
- Influenza [1, 4]: 2.1 (1) % (n)
- Intestinal spasm [1, 4]: 2.1 (1) % (n)
- Joint injury [1, 4]: 2.1 (1) % (n)
- Joint sprain [1, 4]: 2.1 (1) % (n)
- Joint swelling [1, 4]: 2.1 (1) % (n)
- Knee deformity [1, 4]: 2.1 (1) % (n)
- Laryngitis [1, 4]: 4.3 (2) % (n)
- Limb crushing injury [1, 4]: 2.1 (1) % (n)
- Lower respiratory tract infection [1, 4]: 4.3 (2) % (n)
- Migraine [1, 4]: 2.1 (1) % (n)
- Mood swings [1, 4]: 2.1 (1) % (n)
- Muscle spasms [1, 4]: 0.0 (0) % (n)
- Musculoskeletal pain [1, 4]: 4.3 (2) % (n)
- Nasopharyngitis [1, 4]: 2.1 (1) % (n)
- Nausea [1, 4]: 4.3 (2) % (n)
- Neck injury [1, 4]: 2.1 (1) % (n)
- Neck pain [1, 4]: 2.1 (1) % (n)
- Nerve compression [1, 4]: 2.1 (1) % (n)
- Non-cardiac chest pain [1, 4]: 2.1 (1) % (n)
- Oedema peripheral [1, 4]: 6.4 (3) % (n)
- Oesophageal stenosis [1, 4]: 2.1 (1) % (n)
- Otitis media [1, 4]: 0.0 (0) % (n)
- Pharyngolaryngeal pain [1, 4]: 2.1 (1) % (n)
- Plantar fasciitis [1, 4]: 2.1 (1) % (n)
- Pneumonia [1, 4]: 2.1 (1) % (n)
- Rib fracture [1, 4]: 4.3 (2) % (n)
- Road traffic accident [1, 4]: 2.1 (1) % (n)
- Sinusitis [1, 4]: 2.1 (1) % (n)
- Skin laceration [1, 4]: 2.1 (1) % (n)
- Stomach discomfort [1, 4]: 0.0 (0) % (n)
- Swelling face [1, 4]: 0.0 (0) % (n)
- Tendon injury [1, 4]: 0.0 (0) % (n)
- Tendonitis [1, 4]: 2.1 (1) % (n)
- Throat irritation [1, 4]: 2.1 (1) % (n)
- Tinnitus [1, 4]: 2.1 (1) % (n)
- Tooth abscess [1, 4]: 0.0 (0) % (n)
- Tooth infection [1, 4]: 2.1 (1) % (n)
- Toothache [1, 4]: 2.1 (1) % (n)
- Traumatic brain injury [1, 4]: 2.1 (1) % (n)
- Upper respiratory tract infection [1, 4]: 6.4 (3) % (n)
- Urinary tract infection [1, 4]: 0.0 (0) % (n)
- Urticaria [1, 4]: 2.1 (1) % (n)
- Viral upper respiratory tract infection [1, 4]: 2.1 (1) % (n)
- Vomiting [1, 4]: 4.3 (2) % (n)
- Wheezing [1, 4]: 0.0 (0) % (n)
- Ear and labyrinth disorders [1, 5]: 2.1 (1) % (n)
- Eye disorders [1, 5]: 4.3 (2) % (n)
- Gastrointestinal disorders [1, 5]: 23.4 (11) % (n)
- General disorders and administration site conditions [1, 5]: 6.4 (3) % (n)
- Hepatobiliary disorders [1, 5]: 2.1 (1) % (n)
- Immune system disorders [1, 5]: 0.0 (0) % (n)
- Infections and infestations [1, 5]: 36.2 (17) % (n)
- Injury, poisoning and procedural complications [1, 5]: 17.0 (8) % (n)
- Investigations [1, 5]: 0.0 (0) % (n)
- Metabolism and nutrition disorders [1, 5]: 8.5 (4) % (n)
- Neoplasms benign, malignant and unspecified (incl. cysts and polyps) [1, 5]: 0.0 (0) % (n)
- Nervous system disorders [1, 5]: 6.4 (3) % (n)
- Psychiatric disorders [1, 5]: 4.3 (2) % (n)
- Renal and urinary disorders [1, 5]: 0.0 (0) % (n)
- Respiratory, thoracic and mediastinal disorders [1, 5]: 4.3 (2) % (n)
- Vascular disorders [1, 5]: 2.1 (1) % (n)
- Total Subjects With at Least One TEAE ([1]; follow-on study, safety follow-on population, HZT-501 N = 132, Ibuprofen N = 47): 68.1 (32) % (n)
- Viral infection [2]: 2.1 (1) % (n)
- Proportion of subjects with Duodenal Ulcer [3, 6]: 9/190 (4.7%);
- Proportion of subjects with Gastric Ulcer [3, 6]: 34/190 (17.9%);
- Proportion of subjects with UGI Ulcer [3, 6]: 38/190 (20%);
- UGI Ulcer: Subjects with Low-dose Aspirin Use [3, 6]: 6/23 (26.1%);
- UGI Ulcer: Subjects with Prior Ulcer [3, 6]: 2/11 (18.2%);
- Proportion of subjects with Duodenal Ulcer [3, 7]: 4.7%
- Proportion of subjects with Gastric Ulcer [3, 7]: 17.9%
- Proportion of subjects with UGI Ulcer [3, 7]: 20.0%
- Proportion of subjects with Duodenal Ulcer [3, 8]: 6.6%
- Proportion of subjects with Gastric Ulcer [3, 8]: 19.7%
- Proportion of subjects with UGI Ulcer [3, 8]: 22.6%
- UGI Ulcer: Subjects with Prior Ulcer [3, 8]: 20.0%
- Proportion of subjects with Duodenal Ulcer [3, 9]: 6.6%
- Proportion of subjects with Gastric Ulcer [3, 9]: 19.7%
- Proportion of subjects with UGI Ulcer [3, 9]: 22.6%
- Crude ulcer rate, UGI ulcers ([3]; REDUCE-2, early drop-outs imputed as treatment failures): 25.3%
- Crude ulcer rate, duodenal ulcer [3, 10]: 10.1%
- Crude ulcer rate, gastric ulcer [3, 10]: 23.2%
